Consider 3 compounds from PMC2691587 (Journal of medicinal chemistry, 2009).

In data set [1] the test system is H1299 cells. The data set can be described thus: Western blot of K40-acetylated α-tubulin levels in H1299 cells. The data set is classed as cell-based, human. For orientation: In western blotting, separated proteins are transferred to a membrane and probed.
Data set [2] relates to MCF-7 breast adenocarcinoma cells. The data set can be described thus: Western blot of p53 and K382-acetylated p53 levels in MCF-7 cells. The format is cell-based, human.
For data set [3], the system named is NCI H460 cancer cells. To be noted: in the presence of etoposide (10 μM); cited from earlier work.
Data set [4] has as its system SIRT2. To be noted: read-out: SIRT2 IC50 (previously reported); in vitro; cited from earlier work.
Data set [5] concerns SIRT1. To be noted: read-out: SIRT1 IC50 (previously reported); in vitro; cited from earlier work.
Data set [6] addresses T1, human recombinant SIRT1 (Homo sapiens, UniProt Q96EB6).
T1 sequence (Q96EB6 1-747): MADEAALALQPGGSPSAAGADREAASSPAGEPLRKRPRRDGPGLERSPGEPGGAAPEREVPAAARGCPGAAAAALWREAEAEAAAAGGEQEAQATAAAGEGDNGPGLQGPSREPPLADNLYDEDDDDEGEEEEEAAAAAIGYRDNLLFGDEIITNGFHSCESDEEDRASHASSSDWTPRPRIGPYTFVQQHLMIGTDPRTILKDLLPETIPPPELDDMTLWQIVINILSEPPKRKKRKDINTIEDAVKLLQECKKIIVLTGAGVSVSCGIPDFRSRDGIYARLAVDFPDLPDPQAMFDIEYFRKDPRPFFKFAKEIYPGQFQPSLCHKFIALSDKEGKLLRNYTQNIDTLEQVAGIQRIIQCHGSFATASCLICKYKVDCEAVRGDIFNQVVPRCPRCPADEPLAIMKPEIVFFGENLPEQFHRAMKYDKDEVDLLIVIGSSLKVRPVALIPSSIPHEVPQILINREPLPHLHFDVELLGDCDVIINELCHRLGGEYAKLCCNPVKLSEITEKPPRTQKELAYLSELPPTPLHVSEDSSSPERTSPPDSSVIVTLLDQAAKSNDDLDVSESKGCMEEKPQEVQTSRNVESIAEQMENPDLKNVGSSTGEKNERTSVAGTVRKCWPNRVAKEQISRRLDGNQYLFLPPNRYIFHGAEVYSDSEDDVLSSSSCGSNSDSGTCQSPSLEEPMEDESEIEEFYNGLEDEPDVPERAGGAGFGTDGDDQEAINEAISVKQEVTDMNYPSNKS
The data set can be described thus: SIRT1 inhibition, Fluor de Lys fluorescence-based assay. Conditions: ratio of IC50 values versus 1. The data set is classed as biochemical.

For orientation: IC50 means the concentration at which inhibition is half-maximal. In the case of `O=c1[nH]c(=S)[nH]c(-c2ccccc2)c1Cc1c(O)ccc2ccccc12` [compound 1, 6-Phenyl-5-[2″-hydroxynaphthyl-(1″)-methyl]-2-thioxo-2,3-dihydro-1H-pyrimidin-4-one], the “levels of acetylated α-tubulin” value in data set [1] (H1299 cells, with 40 nM trichostatin A, 24 h) is recorded as “did lead to an increase in levels of acetylated tubulin”. The “levels of p53 and acetylated p53” value in data set [2] (MCF-7, in the presence of etoposide (10 μM), 200 μM compound) was “decreased again”; in data set [3], “increased levels of p53 and acetylated p53”. In data set [2] (MCF-7, in the presence of etoposide (10 μM), 20 and 50 μM compound, 6 h), the “levels of p53 and Lys382 acetylated p53” value is reported as “increased”. Moreover, the IC50 is 59 µM in data set [4] and 56 µM in data set [5].

On to `CCCCn1c(-c2ccccc2)c(Cc2c(O)ccc3ccccc23)c(=O)[nH]c1=S` [6j, 6-Phenyl-5-[2″-hydroxynaphthalyl-(1″)-methyl]-1-butyl-2-thioxo-2,3-dihydro-1H-pyrimidin-4-one], for which, in data set [1] (H1299 cells, with trichostatin A, concentration range 10–50 μM), the “levels of acetylated α-tubulin compared to the effect of 1” value is recorded as “an increase in the levels of acetylated α-tubulin was achieved”. Moreover, the toxicity in cells result in data set [1] (concentrations higher than 10–50 μM) is “toxicity”.

Turning to `O=c1[nH]c(=S)[nH]c(-c2ccc(Br)cc2)c1Cc1c(O)ccc2ccccc12` [6b, 6-(4′-Bromophenyl)-5-[2″-hydroxynaphthyl-(1″)-methyl]-2-thioxo-2,3-dihydro-1H-pyrimidin-4-one], in data set [6], the “improvement in activity (IC50) against SIRT1 compared to 1” value is 3 fold. Further, the “levels of acetylated α-tubulin” value in data set [1] (Figure S13, cell line not given) is given as “did not lead to an increase in the levels of acetylated α-tubulin”. For the same compound, in data set [2] (MCF-7, compound alone, in the absence of etoposide, different concentrations), the “levels of p53” value is “did not increase the levels of p53”.
